In US20130261188A1, “Ibuprofen Solid Oral Dosage Composition Comprising a Methacrylic Acid Copolymer” (TEIKOKU PHARMA USA, INC., priority 2012, published 2013) one finds solubility data, which are given here for one compound.

As a reminder, the solubility is how much of the substance goes into solution per volume. Low readings indicate a poorly soluble substance, high ones a readily soluble substance.

Values after ≈ are worked out from the molar mass of the structure shown.

This series can be described thus: Solubility of ibuprofen in simulated salivary fluid (excess ibuprofen, sonication, centrifugation, HPLC). The format is physicochemical. The conditions noted are these: fassgf or other biorelevant, thermodynamic from solid, simulated salivary fluid (19 mM phosphate buffer, 150 mM sodium chloride, pH 6.75), sonicated approximately 1 hour, centrifuged. As to the method: In addition, solubility of ibuprofen was evaluated by adding an excess of ibuprofen to simulated salivary fluid and sonicating for approximately 1 hour. The solution was then centrifuged and injected onto the HPLC.

Regarding `CC(C)Cc1ccc(C(C)C(=O)O)cc1` (stereo not shown) [ibuprofen, 2-(p-isobutylphenyl)propionic acid], the solubility is 1800 µg/mL (≈ 8.73 mM).
